From patent US20260159512A1, “BCAT2 INHIBITORS” (AGIOS PHARMACEUTICALS, INC., priority 2021, published 2026)
Each block holds one compound with its values, some of them ahead of it.

Experiments:
Conditions in all cases: average where tested multiple times
hBCAT1 = target: T1, hBCAT1 (Homo sapiens, UniProt P54687); test: BCAT1 in vitro enzyme inhibition assay (resazurin/diaphorase-coupled fluorescence); type: biochemical
T1 sequence (P54687 1-386): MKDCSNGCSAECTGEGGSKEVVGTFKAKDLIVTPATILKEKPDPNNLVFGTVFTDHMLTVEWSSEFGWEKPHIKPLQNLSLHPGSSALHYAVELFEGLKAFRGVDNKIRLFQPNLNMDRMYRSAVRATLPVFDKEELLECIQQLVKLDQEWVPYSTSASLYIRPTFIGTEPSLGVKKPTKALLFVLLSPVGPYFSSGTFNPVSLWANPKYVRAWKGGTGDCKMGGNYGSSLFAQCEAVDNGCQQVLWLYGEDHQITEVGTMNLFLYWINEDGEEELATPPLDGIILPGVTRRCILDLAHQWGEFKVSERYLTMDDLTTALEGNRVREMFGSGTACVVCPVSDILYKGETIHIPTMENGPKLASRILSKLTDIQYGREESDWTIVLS
Outline: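 Human BCAT1 activity read by resazurin/diaphorase-coupled fluorescence. Compounds added from 50× DMSO stocks at 1:50, giving 10-point 3-fold titrations from 100 μM top final concentration. Run in technical duplicate; repeat tests averaged.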

BCAT2 [1] = target: T2, BCAT2 (Homo sapiens, UniProt O15382); test: BCAT2 in vitro enzyme inhibition assay (resazurin/diaphorase-coupled fluorescence); type: biochemical
T2 sequence (O15382 28-392): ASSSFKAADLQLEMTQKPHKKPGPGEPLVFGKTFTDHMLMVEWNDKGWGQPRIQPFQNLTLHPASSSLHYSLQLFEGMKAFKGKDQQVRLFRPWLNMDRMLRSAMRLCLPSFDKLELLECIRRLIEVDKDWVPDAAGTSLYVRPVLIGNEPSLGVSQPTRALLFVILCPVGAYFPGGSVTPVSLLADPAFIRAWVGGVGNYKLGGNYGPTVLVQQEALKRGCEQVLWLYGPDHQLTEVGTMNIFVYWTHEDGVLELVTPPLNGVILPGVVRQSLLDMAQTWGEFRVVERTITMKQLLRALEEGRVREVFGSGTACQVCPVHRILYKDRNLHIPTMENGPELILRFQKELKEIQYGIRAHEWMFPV
Outline: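 Coupled fluorescence readout: glutamate formed from L-leucine/α-ketoglutarate transamination drives GDH/NAD/diaphorase reduction of resazurin (Ex 540/Em 590). Human BCAT2 was first exposed 1 h at room temperature to compound, top final 100 μM in 3-fold, 10-point series; substrate reaction ran 1 h before SDS quench, in technical duplicate with DMSO max and enzyme-free min controls.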

BCAT2 [2] = target: T2, BCAT2; test: BCAT2 in vitro cell inhibition using engineered A549 cells (KMV cell assay, 13C6-KMV by LC-MS/MS); type: cell-based; design: The result was an engineered A549 cell line that expressed endogenous BCAT2; endogenous in cells; host or cells: A549 cells with MUT and BCAT1 knocked out by CRISPR/CAS9; key to BCAT2 Cell Inhibition: A: less than or equal to 0.100 μM; B: greater than 0.100 and less than or equal to 0.500 μM; C: greater than 0.500 and less than or equal to 1.000 μM; d: greater than 1.000 μM; E: no fit

SMILES: CNC(=O)c1ccc2c(c1)nc(-c1ccccn1)n2C1CC(NC(=O)c2ccc(Br)s2)CN(C(C)=O)C1 (stereo not drawn) [Example 287, 1-(1-acetyl-5-(5-bromothiophene-2-carboxamido)piperidin-3-yl)-N-methyl-2-(pyridin-2-yl)-1H-benzo[d]imidazole-5-carboxamide]
IC50 (hBCAT1): > 5000 nM | IC50 (BCAT2 [1]): 100 to 500 nM | BCAT2 Cell Inhibition (BCAT2 [2]): E

SMILES: O=C(N[C@H]1CCC[C@@H](n2c(-c3ncccc3F)nc3cnc(-n4nccn4)cc32)C1)c1ccc(Cl)s1 [Example 76, 5-chloro-N-((1S,3R)-3-(2-(3-fluoropyridin-2-yl)-6-(2H-1,2,3-triazol-2-yl)-1H-imidazo[4,5-c]pyridin-1-yl)cyclohexyl)thiophene-2-carboxamide]
IC50 (hBCAT1): < 500 nM | IC50 (BCAT2 [1]): ≤ 100 nM | IC50 (BCAT2 [2]): ≤ 100 nM

SMILES: CC1(O)[C@@H](NC(=O)c2ncc(Cl)s2)CCC[C@H]1n1c(-c2ccccc2F)nc2cnc(-c3nc[nH]n3)cc21 (single isomer, unassigned) [Example 233]
IC50 (hBCAT1): < 500 nM | IC50 (BCAT2 [1]): ≤ 100 nM | IC50 (BCAT2 [2]): 100 to 500 nM

SMILES: O=C(N[C@H]1CCC[C@@H](n2c(-c3ccccn3)nc3cc(-n4ccnn4)ncc32)C1)c1ccc(Br)s1 [Example 152, 5-bromo-N-((1S,3R)-3-(2-(pyridin-2-yl)-6-(1H-1,2,3-triazol-1-yl)-3H-imidazo[4,5-c]pyridin-3-yl)cyclohexyl)thiophene-2-carboxamide]
IC50 (hBCAT1): 500 to 1000 nM | IC50 (BCAT2 [1]): ≤ 100 nM | IC50 (BCAT2 [2]): ≤ 100 nM

SMILES: Cc1coc(-c2cc3c(cn2)nc(-c2ccccn2)n3[C@@H]2CCC[C@H](NC(=O)c3ccc(Br)s3)C2)n1 [Example 31, 5-bromo-N-((1S,3R)-3-(6-(4-methyloxazol-2-yl)-2-(pyridin-2-yl)-1H-imidazo[4,5-c]pyridin-1-yl)cyclohexyl)thiophene-2-carboxamide]
IC50 (hBCAT1): < 500 nM | IC50 (BCAT2 [1]): ≤ 100 nM | IC50 (BCAT2 [2]): ≤ 100 nM

SMILES: Cc1cccnc1-c1cc2c(cn1)nc(-c1ccccc1F)n2[C@@H]1CCC[C@H](NC(=O)c2ncc(Cl)s2)C1 [Example 161, 5-chloro-N-((1S,3R)-3-(2-(2-fluorophenyl)-6-(3-methylpyridin-2-yl)-1H-imidazo[4,5-c]pyridin-1-yl)cyclohexyl)thiazole-2-carboxamide]
IC50 (hBCAT1): 1000 to 5000 nM | IC50 (BCAT2 [1]): ≤ 100 nM | IC50 (BCAT2 [2]): 100 to 500 nM

SMILES: COc1cccc(-c2cc3c(cn2)nc(-c2ccccc2F)n3[C@@H]2CCC[C@H](NC(=O)c3ncc(Cl)s3)C2)n1 [Example 179, 5-chloro-N-((1S,3R)-3-(2-(2-fluorophenyl)-6-(6-methoxypyridin-2-yl)-1H-imidazo[4,5-c]pyridin-1-yl)cyclohexyl)thiazole-2-carboxamide]
IC50 (hBCAT1): < 500 nM | IC50 (BCAT2 [1]): ≤ 100 nM | IC50 (BCAT2 [2]): ≤ 100 nM

SMILES: CNC(=O)c1cc2nc(CC(C)C)n([C@@H]3CCC[C@H](NC(=O)c4ncc(Cl)s4)[C@H]3O)c2cn1 (single isomer, unassigned) [Example 280]
IC50 (hBCAT1): 1000 to 5000 nM | IC50 (BCAT2 [1]): ≤ 100 nM | IC50 (BCAT2 [2]): 500 to 1000 nM

SMILES: O=C(N[C@H]1CCC[C@@H](n2c(-c3ccccn3)nc3cnc(-n4nccn4)cc32)C1)c1ncc(Br)s1 [Example 19, 5-bromo-N-((1S,3R)-3-(2-(pyridin-2-yl)-6-(2H-1,2,3-triazol-2-yl)-1H-imidazo[4,5-c]pyridin-1-yl)cyclohexyl)thiazole-2-carboxamide]
IC50 (hBCAT1): < 500 nM | IC50 (BCAT2 [1]): ≤ 100 nM | IC50 (BCAT2 [2]): ≤ 100 nM

SMILES: O=C(N[C@H]1CCC[C@@H](n2c(-c3ccccc3F)nc3cnc(-c4ccccc4)cc32)C1)c1ncc(Cl)s1 [Example 204, 5-chloro-N-((1S,3R)-3-(2-(2-fluorophenyl)-6-phenyl-1H-imidazo[4,5-c]pyridin-1-yl)cyclohexyl)thiazole-2-carboxamide]
IC50 (hBCAT1): 500 to 1000 nM | IC50 (BCAT2 [1]): ≤ 100 nM | IC50 (BCAT2 [2]): 100 to 500 nM

SMILES: O=C(N[C@H]1CCC[C@@H](n2c(Nc3ccccn3)nc3cnc(-n4nccn4)cc32)C1)c1ncc(C(F)F)s1 [Example 69, 5-(difluoromethyl)-N-((1S,3R)-3-(2-(pyridin-2-ylamino)-6-(2H-1,2,3-triazol-2-yl)-1H-imidazo[4,5-c]pyridin-1-yl)cyclohexyl)thiazole-2-carboxamide]
IC50 (hBCAT1): > 5000 nM | IC50 (BCAT2 [1]): 100 to 500 nM | IC50 (BCAT2 [2]): > 1000 nM

Now from value to compound:

IC50 (hBCAT1): < 500 nM | IC50 (BCAT2 [1]): ≤ 100 nM | IC50 (BCAT2 [2]): ≤ 100 nM
SMILES: O=C(N[C@H]1CCC[C@@H](n2c(-c3c(O)cccc3F)nc3cnc(-c4nc[nH]n4)cc32)C1)c1ncc(Cl)s1 [Example 339, 5-chloro-N-((1S,3R)-3-(2-(2-fluoro-6-hydroxyphenyl)-6-(1H-1,2,4-triazol-3-yl)-1H-imidazo[4,5-c]pyridin-1-yl)cyclohexyl)thiazole-2-carboxamide]

IC50 (hBCAT1): < 500 nM | IC50 (BCAT2 [1]): ≤ 100 nM | IC50 (BCAT2 [2]): ≤ 100 nM
SMILES: CO[C@@H]1C[C@@H](NC(=O)c2ncc(Cl)s2)C[C@@H](n2c(-c3ccccc3F)nc3cnc(-n4nccn4)cc32)C1 (stereo in doubt) [Example 424, 5-chloro-N-((1S,3R,5R)-3-(2-(2-fluorophenyl)-6-(2H-1,2,3-triazol-2-yl)-1H-imidazo[4,5-c]pyridin-1-yl)-5-methoxycyclohexyl)thiazole-2-carboxamide]

IC50 (hBCAT1): < 500 nM | IC50 (BCAT2 [1]): ≤ 100 nM | IC50 (BCAT2 [2]): ≤ 100 nM
SMILES: COC(=O)N1C[C@H](NC(=O)c2ccc(Cl)s2)C[C@H](n2c(-c3ccccc3F)nc3cnc(-c4nc[nH]n4)cc32)C1 [Example 462, methyl (3R,5S)-3-(5-chlorothiophene-2-carboxamido)-5-(2-(2-fluorophenyl)-6-(1H-1,2,4-triazol-3-yl)-1H-imidazo[4,5-c]pyridin-1-yl)piperidine-1-carboxylate]

IC50 (hBCAT1): 1000 to 5000 nM | IC50 (BCAT2 [1]): ≤ 100 nM | IC50 (BCAT2 [2]): ≤ 100 nM
SMILES: CO[C@@H]1C[C@@H](NC(=O)c2ncc(Cl)s2)C[C@@H](n2c(-c3ccccc3F)nc3cnc(-n4cncn4)cc32)C1 (stereo in doubt) [Example 416, 5-chloro-N-((1S,3R,5R)-3-(2-(2-fluorophenyl)-6-(1H-1,2,4-triazol-1-yl)-1H-imidazo[4,5-c]pyridin-1-yl)-5-methoxycyclohexyl)thiazole-2-carboxamide]

IC50 (hBCAT1): 1000 to 5000 nM | IC50 (BCAT2 [1]): ≤ 100 nM | IC50 (BCAT2 [2]): 100 to 500 nM
SMILES: CNC(=O)c1cc2nc(-c3ccccc3F)n(C3CC(NC(=O)c4ccc(Br)s4)CN(C)C3)c2cc1OC (stereo not drawn) [Example 291, 1-(5-(5-bromothiophene-2-carboxamido)-1-methylpiperidin-3-yl)-2-(2-fluorophenyl)-6-methoxy-N-methyl-1H-benzo[d]imidazole-5-carboxamide]

IC50 (hBCAT1): 1000 to 5000 nM | IC50 (BCAT2 [1]): ≤ 100 nM | IC50 (BCAT2 [2]): 500 to 1000 nM
SMILES: CC(C)Cc1nc2cnc(-c3cccc(CO)n3)cc2n1[C@@H]1CCC[C@H](NC(=O)c2ncc(Cl)s2)C1 [Example 311, 5-chloro-N-((1S,3R)-3-(6-(6-(hydroxymethyl)pyridin-2-yl)-2-isobutyl-1H-imidazo[4,5-c]pyridin-1-yl)cyclohexyl)thiazole-2-carboxamide]

IC50 (hBCAT1): > 5000 nM | IC50 (BCAT2 [1]): 500 to 1000 nM | BCAT2 Cell Inhibition (BCAT2 [2]): E
SMILES: CNC(=O)c1ccc2c(c1)nc(-c1ccccn1)n2C1CC(NC(=O)c2ccc(Br)s2)CN(C)C1 (stereo not drawn) [Example 288, 1-(5-(5-bromothiophene-2-carboxamido)-1-methylpiperidin-3-yl)-N-methyl-2-(pyridin-2-yl)-1H-benzo[d]imidazole-5-carboxamide]

IC50 (hBCAT1): < 500 nM | IC50 (BCAT2 [1]): ≤ 100 nM | IC50 (BCAT2 [2]): ≤ 100 nM
SMILES: COc1cccc(-c2nc3cnc(-c4nc[nH]n4)cc3n2[C@@H]2CCC[C@H](NC(=O)c3ccc(Cl)s3)C2)c1F [Example 348, 5-chloro-N-((1S,3R)-3-(2-(2-fluoro-3-methoxyphenyl)-6-(1H-1,2,4-triazol-3-yl)-1H-imidazo[4,5-c]pyridin-1-yl)cyclohexyl)thiophene-2-carboxamide]

IC50 (hBCAT1): 500 to 1000 nM | IC50 (BCAT2 [1]): ≤ 100 nM | IC50 (BCAT2 [2]): 500 to 1000 nM
SMILES: CC(C)Cc1nc2cnc(-c3nc(Cl)cs3)cc2n1[C@@H]1CCC[C@H](NC(=O)c2ncc(Cl)s2)C1 [Example 329, 5-chloro-N-((1S,3R)-3-(6-(4-chlorothiazol-2-yl)-2-isobutyl-1H-imidazo[4,5-c]pyridin-1-yl)cyclohexyl)thiazole-2-carboxamide]
